Test results reported in US9981942B2, “Piperidine derivatives having multimodal activity against pain” (LABORATORIOS DEL DR. ESTEVE S.A., priority 2013, dated 2018).

tested on: σ1 receptor and the μ-opiod receptor; assay: μ and σ1 dual binding: combined class from the Ki of both radioligand assays; parameters: species or system human; key to μ and σ1 dual binding: +: Both Ki-μ and Ki-σ1>=500 nM; ++: One Ki<500 nM while the other Ki is >=500 nM; +++: Both Ki-μ and Ki-σ1<500 nM; ++++: Both Ki-μ and Ki-σ1<100 nM; settings: combined class for Ki-μ and Ki-σ1; transfected HEK-293 membranes (σ1), transfected CHO-K1 cell membranes (μ)
How it was run: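 Classes combine both Ki values, split at 500 nM and 100 nM. Human μ-opioid binding used 1 nM [3H]-DAMGO on CHO-K1 membranes (27 °C, 60 min, pH 7.4, naloxone 10 μM for NSB); human σ1 used 5 nM [3H](+)-pentazocine on HEK-293 membranes (37 °C, 120 min, pH 8, haloperidol 10 μM for NSB).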

SMILES	μ and σ1 dual binding
CCN(CC)C(=O)Cn1cc(CN2CCC(c3cccc(O)c3)CC2)nn1 [Example 45, N,N-diethyl-2-(4-((4-(3-hydroxyphenyl)piperidin-1-yl)methyl)-1H-1,2,3-triazol-1-yl)acetamide]	++
c1ccc(Cn2cc(CN3CCC(c4cccc(Nc5nccs5)n4)CC3)nn2)nc1 [Example 230, N-(6-(1-((1-(pyridin-2-ylmethyl)-1H-1,2,3-triazol-4-yl)methyl)piperidin-4-yl)pyridin-2-yl)thiazol-2-amine]	++
Oc1cccc(C2CCN(Cc3cn(Cc4ncccc4O)nn3)CC2)c1 [Example 156, 2-((4-((4-(3-hydroxyphenyl)piperidin-1-yl)methyl)-1H-1,2,3-triazol-1-yl)methyl)pyridin-3-ol]	++
CS(=O)(=O)Nc1cccc(C2CCN(Cc3cn(-c4ccccc4)nn3)CC2)n1 [Example 191, N-(6-(1-((1-phenyl-1H-1,2,3-triazol-4-yl)methyl)piperidin-4-yl)pyridin-2-yl)methanesulfonamide]	++
c1ccc(-n2cc(CN3CCC(c4cccc5[nH]cnc45)CC3)nn2)cc1 [Example 11, 4-(1-((1-phenyl-1H-1,2,3-triazol-4-yl)methyl)piperidin-4-yl)-1H-benzo[d]imidazole]	++
COc1cccnc1-n1cc(CN2CCC(c3cccc(O)c3)CC2)nn1 [Example 219, 3-(1-((1-(3-methoxypyridin-2-yl)-1H-1,2,3-triazol-4-yl)methyl)piperidin-4-yl)phenol]	++
CS(=O)(=O)Nc1cccc([C@@H]2CCN(Cc3cn(-c4ccccc4)nn3)C[C@@H]2O)c1 [Example 110, N-(3-((3R,4S)-3-hydroxy-1-((1-phenyl-1H-1,2,3-triazol-4-yl)methyl)piperidin-4-yl)phenyl)methanesulfonamide]	++
CC(C)S(=O)(=O)Nc1cccc([C@@H]2CCN(Cc3cn(Cc4ccccn4)nn3)C[C@@H]2O)c1 [Example 125, N-(3-((3R,4S)-3-hydroxy-1-((1-(pyridin-2-ylmethyl)-1H-1,2,3-triazol-4-yl)methyl)piperidin-4-yl)phenyl)propane-2-sulfonamide]	++
c1ccc(-n2cc(CN3CCC(c4ccc5cn[nH]c5c4)CC3)nn2)cc1 [Example 26, 6-(1-((1-phenyl-1H-1,2,3-triazol-4-yl)methyl)piperidin-4-yl)-1H-indazole]	++
O=C1Cc2c(cccc2C2CCN(Cc3cn(-c4ccccc4)nn3)CC2)N1 [Example 32, 4-(1-((1-phenyl-1H-1,2,3-triazol-4-yl)methyl)piperidin-4-yl)indolin-2-one]	++

same assay, conditions: transfected HEK-293 membranes (σ1), transfected CHO-K1 cell membranes (μ)

SMILES	Ki range for both μ and σ1 (dual-binding class) [nM]
CS(=O)(=O)Nc1cccc(C2CCN(Cc3cn(Cc4ccccc4)nn3)CC2)c1 [Example 37, N-(3-(1-((1-benzyl-1H-1,2,3-triazol-4-yl)methyl)piperidin-4-yl)phenyl)methanesulfonamide]	< 500
Oc1cccc(C2CCN(Cc3cn([C@@H]4Cc5ccccc5[C@H]4F)nn3)CC2)c1 [Example 72, 3-(1-((1-((1R,2R)-1-fluoro-2,3-dihydro-1H-inden-2-yl)-1H-1,2,3-triazol-4-yl)methyl)piperidin-4-yl)phenol]	< 100
CCC(=O)Nc1cccc(C2CCN(Cc3cn(-c4ccccc4)nn3)CC2)n1 [Example 190, N-(6-(1-((1-phenyl-1H-1,2,3-triazol-4-yl)methyl)piperidin-4-yl)pyridin-2-yl)propionamide]	< 500
c1ccc(-n2cc(CN3CCC(c4cccc(-c5ncc[nH]5)c4)CC3)nn2)cc1 [Example 30, 4-(3-(1H-imidazol-2-yl)phenyl)-1-((1-phenyl-1H-1,2,3-triazol-4-yl)methyl)piperidine]	< 500
Oc1cccc(C2CCN(Cc3cn(-c4coc5ccccc45)nn3)CC2)c1 [Example 89, 3-(1-((1-(benzofuran-3-yl)-1H-1,2,3-triazol-4-yl)methyl)piperidin-4-yl)phenol]	< 100
Oc1cccc(C2CCN(Cc3cn([C@@H]4c5ccccc5C[C@H]4O)nn3)CC2)c1 [Example 78, (1R,2R)-1-(4-((4-(3-hydroxyphenyl)piperidin-1-yl)methyl)-1H-1,2,3-triazol-1-yl)-2,3-dihydro-1H-inden-2-ol]	< 500
Oc1cccc(C2CCN(Cc3cn(-c4ccccc4)nn3)CC2)n1 [Example 198, 6-(1-((1-phenyl-1H-1,2,3-triazol-4-yl)methyl)piperidin-4-yl)pyridin-2-ol]	≥ 500
Cc1ccc(C2CCN(Cc3cn(-c4ccccc4)nn3)CC2)cc1O [Example 52, 2-methyl-5-(1-((1-phenyl-1H-1,2,3-triazol-4-yl)methyl)piperidin-4-yl)phenol]	< 100
Oc1ccc(C2CCN(Cc3cn(-c4ccccc4)nn3)CC2)cc1 [Example 221, 4-(1-((1-phenyl-1H-1,2,3-triazol-4-yl)methyl)piperidin-4-yl)phenol]	< 500
CS(=O)(=O)Nc1cccc(C2CCN(Cc3cnn(-c4ccccc4)c3)CC2)c1 [Example 163, N-(3-(1-((1-phenyl-1H-pyrazol-4-yl)methyl)piperidin-4-yl)phenyl)methanesulfonamide]	< 100
Oc1cccc(C2CCN(Cc3cn(-c4ccc(C(F)(F)F)cc4F)nn3)CC2)c1 [Example 226, 3-(1-((1-(2-fluoro-4-(trifluoromethyl)phenyl)-1H-1,2,3-triazol-4-yl)methyl)piperidin-4-yl)phenol]	< 100
Oc1cccc(C2CCN(Cc3cn([C@@H]4Cc5ccccc5[C@@H]4F)nn3)CC2)c1 [Example 71, 3-(1-((1-((1S,2R)-1-fluoro-2,3-dihydro-1H-inden-2-yl)-1H-1,2,3-triazol-4-yl)methyl)piperidin-4-yl)phenol]	< 100
COc1cccc(Cn2cc(CN3CCC(c4cccc(NS(=O)(=O)C(C)C)c4)CC3)nn2)n1 [Example 113]	< 100
Oc1cccc(C2CCN(Cc3cnn(-c4ccccc4)c3)CC2)c1 [Example 164, 3-(1-((1-phenyl-1H-pyrazol-4-yl)methyl)piperidin-4-yl)phenol]	< 100
c1ccc(-n2cc(CN3CCC(c4cccc5[nH]ncc45)CC3)nn2)cc1 [Example 29, 4-(1-((1-phenyl-1H-1,2,3-triazol-4-yl)methyl)piperidin-4-yl)-1H-indazole]	< 500
CS(=O)(=O)Nc1cccc(C2CCN(Cc3cn([C@@H]4c5ccccc5C[C@H]4O)nn3)CC2)c1 [Example 92, N-(3-(1-((1-((1R,2R)-2-hydroxy-2,3-dihydro-1H-inden-1-yl)-1H-1,2,3-triazol-4-yl)methyl)piperidin-4-yl)phenyl)methanesulfonamide]	< 500
Oc1cccc(C2CCN(Cc3cn(-c4c(F)cccc4F)nn3)CC2)c1 [Example 146, 3-(1-((1-(2,6-difluorophenyl)-1H-1,2,3-triazol-4-yl)methyl)piperidin-4-yl)phenol]	< 100
Oc1cccc(C2CCN(Cc3cn(Cc4ccc(Cl)cn4)nn3)CC2)c1 [Example 153, 3-(1-((1-((5-chloropyridin-2-yl)methyl)-1H-1,2,3-triazol-4-yl)methyl)piperidin-4-yl)phenol]	< 100
